ChEMBL document CHEMBL5055657, “Effect of phenylurea hydroxamic acids on histone deacetylase and VEGFR-2” (Bioorg Med Chem, 2021)

Tests used:
[1] = system: PC-3; assay: cells; format: functional, cell-based; conditions: Homo sapiens, PC-3, 48 h
[2] = target: T1, Vascular endothelial growth factor receptor 2 (Homo sapiens, UniProt P35968)
[3] = target: T2, Protein deacetylase HDAC6 (Homo sapiens, UniProt Q9UBN7); assay: Inhibition of full length recombinant N-terminal GST-tagged human HDAC6 expressed in baculovirus infected Sf9 insect cells using RHK-K(Ac)-AMC as substrate measured after 90 mins by fluorescence plate reader assay
T2 sequence (Q9UBN7 whole entry): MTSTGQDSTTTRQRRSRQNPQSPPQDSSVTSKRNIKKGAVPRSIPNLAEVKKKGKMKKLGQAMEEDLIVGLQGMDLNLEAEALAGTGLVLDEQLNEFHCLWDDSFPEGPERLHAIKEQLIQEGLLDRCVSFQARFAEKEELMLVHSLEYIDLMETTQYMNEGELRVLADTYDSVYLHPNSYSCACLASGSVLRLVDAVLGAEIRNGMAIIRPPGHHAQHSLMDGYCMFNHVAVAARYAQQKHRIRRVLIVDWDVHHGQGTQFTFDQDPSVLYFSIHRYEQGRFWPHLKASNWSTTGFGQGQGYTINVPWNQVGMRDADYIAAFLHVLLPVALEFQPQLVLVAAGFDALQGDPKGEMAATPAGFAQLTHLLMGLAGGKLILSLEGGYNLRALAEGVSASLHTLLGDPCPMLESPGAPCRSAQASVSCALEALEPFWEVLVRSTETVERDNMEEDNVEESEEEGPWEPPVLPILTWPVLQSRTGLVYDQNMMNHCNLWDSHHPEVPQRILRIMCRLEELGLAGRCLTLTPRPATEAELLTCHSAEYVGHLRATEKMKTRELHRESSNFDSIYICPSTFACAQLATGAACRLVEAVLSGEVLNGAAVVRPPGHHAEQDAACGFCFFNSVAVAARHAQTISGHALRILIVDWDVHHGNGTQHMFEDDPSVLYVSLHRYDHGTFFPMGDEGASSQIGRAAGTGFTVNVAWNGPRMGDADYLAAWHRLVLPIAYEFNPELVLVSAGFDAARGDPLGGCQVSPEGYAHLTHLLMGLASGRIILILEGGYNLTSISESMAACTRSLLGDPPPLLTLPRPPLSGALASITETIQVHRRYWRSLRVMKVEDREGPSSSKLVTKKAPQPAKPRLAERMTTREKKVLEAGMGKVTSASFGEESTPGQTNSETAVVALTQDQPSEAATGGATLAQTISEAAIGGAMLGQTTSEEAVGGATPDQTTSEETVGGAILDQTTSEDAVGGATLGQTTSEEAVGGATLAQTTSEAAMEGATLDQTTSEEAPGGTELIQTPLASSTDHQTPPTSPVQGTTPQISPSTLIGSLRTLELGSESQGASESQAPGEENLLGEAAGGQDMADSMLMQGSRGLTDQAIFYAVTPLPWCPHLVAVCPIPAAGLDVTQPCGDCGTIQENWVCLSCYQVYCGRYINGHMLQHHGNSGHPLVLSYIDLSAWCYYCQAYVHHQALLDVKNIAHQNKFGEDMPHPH

[4] = cells; format: functional; conditions: Homo sapiens, Endothelial progenitor cell; time 48 hrs
[5] = system: SK-HEP1; assay: cells; format: functional, cell-based; conditions: Homo sapiens, SK-HEP1, 48 h
[6] = system: A549; assay: cells; format: functional, cell-based; conditions: Homo sapiens, A549, 48 h
[7] = target: T3, Histone deacetylase (Homo sapiens) (UniProt Q13547+O15379+Q9UBN7+Q92769+Q9UQL6+Q8WUI4+Q9BY41+Q96DB2+P56524+Q9UKV0+Q969S8); assay: Inhibition of HDAC in human SK-HEP1 cells assessed as increase in acetylated histone H3 level measured after 24 hrs by Western blot analysis; format: cell-based; conditions: dose 5-10 µM
[8] = target: T3, Histone deacetylase (Homo sapiens); assay: Inhibition of HDAC in human PC-3 cells assessed as increase in acetylated histone H3 level measured after 24 hrs by Western blot analysis; format: cell-based; conditions: dose 5-10 µM
[9] = target: T3, Histone deacetylase (Homo sapiens); assay: Inhibition of HDAC in human A549 cells assessed as increase in acetylated alpha tubulin level measured after 24 hrs by Western blot analysis; format: cell-based; conditions: dose 5-10 µM
[10] = target: T3, Histone deacetylase (Homo sapiens); assay: Inhibition of HDAC in human PC-3 cells assessed as increase in acetylated alpha tubulin level measured after 24 hrs by Western blot analysis; format: cell-based; conditions: dose 5-10 µM
[11] = organism: Homo sapiens; assay: Selectivity ratio of IC50 for recombinant C-terminal His-fusion tagged/N-terminal Strep2 tagged human HDAC8 (1 to 377 residues) expressed in insect cells to IC50 full length recombinant N-terminal GST-tagged human HDAC6 expressed in baculovirus infected Sf9 insect cells
[12] = target: T4, Histone deacetylase 8 (Homo sapiens, UniProt Q9BY41); assay: Inhibition of recombinant C-terminal His-fusion tagged/N-terminal Strep2 tagged human HDAC8 (1 to 377 residues) expressed in insect cells using RHK-K(Ac)-K(Ac)-AMC as substrate measured after 60 mins by fluorescence plate reader assay
T4 sequence (Q9BY41 whole entry): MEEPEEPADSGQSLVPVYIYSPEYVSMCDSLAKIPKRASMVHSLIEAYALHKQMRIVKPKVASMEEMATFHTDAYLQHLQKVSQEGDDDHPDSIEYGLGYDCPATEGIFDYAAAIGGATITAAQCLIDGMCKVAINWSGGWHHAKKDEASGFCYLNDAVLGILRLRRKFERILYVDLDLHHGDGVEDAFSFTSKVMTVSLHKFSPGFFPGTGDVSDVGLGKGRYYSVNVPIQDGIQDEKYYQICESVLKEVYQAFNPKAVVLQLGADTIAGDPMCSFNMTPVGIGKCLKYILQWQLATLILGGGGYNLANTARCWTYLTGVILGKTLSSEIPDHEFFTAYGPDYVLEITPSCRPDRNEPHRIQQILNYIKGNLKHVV

[13] = target: T3, Histone deacetylase (Homo sapiens); assay: Inhibition of HDAC in human SK-HEP1 cells assessed as increase in acetylated alpha tubulin level measured after 24 hrs by Western blot analysis; format: cell-based; conditions: dose 5-10 µM
[14] = target: T3, Histone deacetylase (Homo sapiens); assay: Inhibition of HDAC in human A549 cells assessed as increase in acetylated histone H3 level measured after 24 hrs by Western blot analysis; format: cell-based; conditions: dose 5-10 µM
[15] = organism: Homo sapiens; assay: Selectivity ratio of IC50 for full length recombinant C-terminal FLAG/His-tagged human HDAC1 expressed in baculovirus infected Sf21 insect cells to IC50 for full length recombinant N-terminal GST-tagged human HDAC6 expressed in baculovirus infected Sf9 insect cells
[16] = target: Histone deacetylase 2 (Homo sapiens, UniProt Q92769); assay: Inhibition of full length recombinant C-terminal GST-fusion-tagged human HDAC2 expressed in insect cells using RHK-K(Ac)-AMC as substrate measured after 60 mins by fluorescence plate reader assay
Chain of Histone deacetylase 2 (Q92769 whole entry, the tested form may be a part): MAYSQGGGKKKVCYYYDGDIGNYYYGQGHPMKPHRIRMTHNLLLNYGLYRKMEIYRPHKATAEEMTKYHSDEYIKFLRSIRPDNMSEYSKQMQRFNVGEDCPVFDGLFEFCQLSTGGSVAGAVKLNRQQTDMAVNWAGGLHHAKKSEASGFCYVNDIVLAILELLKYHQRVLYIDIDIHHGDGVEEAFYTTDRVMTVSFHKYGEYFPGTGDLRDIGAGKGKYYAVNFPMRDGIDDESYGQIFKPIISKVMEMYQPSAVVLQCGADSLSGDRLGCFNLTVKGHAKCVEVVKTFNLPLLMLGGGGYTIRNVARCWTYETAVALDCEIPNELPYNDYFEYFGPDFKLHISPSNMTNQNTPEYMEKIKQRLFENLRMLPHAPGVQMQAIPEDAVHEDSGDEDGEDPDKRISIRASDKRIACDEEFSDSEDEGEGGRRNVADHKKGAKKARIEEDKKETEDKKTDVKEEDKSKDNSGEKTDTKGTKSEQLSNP

[17] = target: Histone deacetylase 1 (Homo sapiens, UniProt Q13547); assay: Inhibition of full length recombinant C-terminal FLAG/His-tagged human HDAC1 expressed in baculovirus infected Sf21 insect cells using RHK-K(Ac)-AMC as substrate measured after 60 mins by fluorescence plate reader assay
Chain of Histone deacetylase 1 (Q13547 whole entry, the tested form may be a part): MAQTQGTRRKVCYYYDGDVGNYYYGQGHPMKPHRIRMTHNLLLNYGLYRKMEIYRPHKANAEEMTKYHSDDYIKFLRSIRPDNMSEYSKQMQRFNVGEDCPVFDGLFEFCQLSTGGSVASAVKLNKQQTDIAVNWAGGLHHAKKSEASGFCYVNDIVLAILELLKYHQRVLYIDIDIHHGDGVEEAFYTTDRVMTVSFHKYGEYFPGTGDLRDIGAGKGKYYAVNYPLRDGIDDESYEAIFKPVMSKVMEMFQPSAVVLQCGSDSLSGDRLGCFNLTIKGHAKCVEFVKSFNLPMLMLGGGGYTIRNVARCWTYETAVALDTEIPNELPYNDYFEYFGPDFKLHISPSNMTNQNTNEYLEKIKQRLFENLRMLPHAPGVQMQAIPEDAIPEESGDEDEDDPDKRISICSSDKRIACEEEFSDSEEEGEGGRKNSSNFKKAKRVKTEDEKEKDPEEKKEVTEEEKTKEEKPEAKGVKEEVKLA

[18] = organism: Homo sapiens; assay: Selectivity ratio of IC50 for full length recombinant C-terminal GST-fusion-tagged human HDAC2 to IC50 for full length recombinant N-terminal GST-tagged human HDAC6 expressed in baculovirus infected Sf9 insect cells
[19] = target: T1, Vascular endothelial growth factor receptor 2; assay: Inhibition of VEGFR2 phosphorylation in human Endothelial progenitor cells at 5 to 10 uM measured after 10 mins by Western blot analysis; format: tissue-based; conditions: Endothelial progenitor cell, dose 5-10 µM
[20] = system: Endothelial progenitor cell; assay: Antiangiogenesis activity in human Endothelial progenitor cells assessed as retarded capillary like tube formation measured for 24 hrs by microscopic analysis; format: functional, tissue-based; conditions: dose 5-10 µM

T1 sequence (P35968 whole entry): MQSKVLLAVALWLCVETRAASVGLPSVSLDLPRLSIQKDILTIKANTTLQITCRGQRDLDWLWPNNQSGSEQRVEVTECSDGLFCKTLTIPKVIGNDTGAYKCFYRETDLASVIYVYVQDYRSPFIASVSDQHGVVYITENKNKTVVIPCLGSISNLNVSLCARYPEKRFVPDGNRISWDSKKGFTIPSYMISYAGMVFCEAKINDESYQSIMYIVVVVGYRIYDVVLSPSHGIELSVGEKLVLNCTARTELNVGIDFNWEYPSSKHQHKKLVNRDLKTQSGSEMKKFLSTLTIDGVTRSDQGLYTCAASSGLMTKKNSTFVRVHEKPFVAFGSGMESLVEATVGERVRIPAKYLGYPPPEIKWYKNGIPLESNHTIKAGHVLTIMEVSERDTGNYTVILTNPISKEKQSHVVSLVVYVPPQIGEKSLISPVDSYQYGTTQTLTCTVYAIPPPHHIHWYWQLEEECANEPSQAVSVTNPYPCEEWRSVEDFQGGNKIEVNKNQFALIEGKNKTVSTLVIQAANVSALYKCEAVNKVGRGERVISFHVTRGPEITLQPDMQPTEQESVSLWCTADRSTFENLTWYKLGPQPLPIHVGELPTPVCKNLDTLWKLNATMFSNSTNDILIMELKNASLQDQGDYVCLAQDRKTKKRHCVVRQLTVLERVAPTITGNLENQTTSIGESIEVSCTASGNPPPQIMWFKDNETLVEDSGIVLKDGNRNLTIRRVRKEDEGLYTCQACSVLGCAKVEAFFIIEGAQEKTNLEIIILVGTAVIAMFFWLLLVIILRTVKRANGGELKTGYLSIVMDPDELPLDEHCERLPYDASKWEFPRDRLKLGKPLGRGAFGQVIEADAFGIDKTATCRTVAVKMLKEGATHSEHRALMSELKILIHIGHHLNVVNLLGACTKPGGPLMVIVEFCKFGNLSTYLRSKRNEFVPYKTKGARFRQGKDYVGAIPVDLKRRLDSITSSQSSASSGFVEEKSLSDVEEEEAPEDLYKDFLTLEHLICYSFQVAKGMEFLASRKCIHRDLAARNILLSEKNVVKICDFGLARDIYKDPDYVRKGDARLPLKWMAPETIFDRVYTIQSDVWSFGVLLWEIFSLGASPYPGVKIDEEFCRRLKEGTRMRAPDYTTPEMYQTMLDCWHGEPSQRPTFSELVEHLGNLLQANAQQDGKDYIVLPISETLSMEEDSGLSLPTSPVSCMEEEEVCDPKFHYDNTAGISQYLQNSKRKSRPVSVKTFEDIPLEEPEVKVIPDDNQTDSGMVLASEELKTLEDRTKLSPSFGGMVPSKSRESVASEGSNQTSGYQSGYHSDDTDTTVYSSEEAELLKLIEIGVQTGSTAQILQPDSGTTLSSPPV

Row | Structure (SMILES) | IC50 [1] [µM] | IC50 [3] [µM] | GI50 [4] [µM] | IC50 [5] [µM] | IC50 [6] [µM] | further results
1 | O=C(Nc1ccc2c(c1)CCCN2c1ccc(C(=O)NO)cc1)Nc1ccc(Cl)c(C(F)(F)F)c1 | 3 | 1.2 | 1 | 3.4 | 2.9 | IC50 [2]: 13.2 µM
2 | O=C(CCCCCC(=O)Nc1ccc(NC(=O)Nc2ccc(Cl)c(C(F)(F)F)c2)cc1)NO | > 10 |  | > 10 | > 10 | > 10 | 
3 | O=C(Nc1ccc2c(c1)CCN2Cc1ccc(C(=O)NO)cc1)Nc1ccc(Cl)c(C(F)(F)F)c1 | 3.4 |  | 1.6 | 4.6 | 3.1 | 
4 | O=C(/C=C/c1ccc(CN2CCc3cc(NC(=O)Nc4ccc(Cl)c(C(F)(F)F)c4)ccc32)cc1)NO | 2.3 | 1.14 | 1.2 | 3.5 | 2.7 | 
5 | O=C(CCCCC(=O)Nc1ccc(NC(=O)Nc2ccc(Cl)c(C(F)(F)F)c2)cc1)NO | > 10 |  | > 10 | > 10 | > 10 | 
6 | O=C(Nc1ccc(Nc2ncc(C(=O)NO)cn2)cc1)Nc1ccc(Cl)c(C(F)(F)F)c1 | > 10 |  | 5.8 | > 10 | > 10 | 
7 | O=C(Nc1ccc2c(c1)CCCN2Cc1ccc(C(=O)NO)cc1)Nc1ccc(Cl)c(C(F)(F)F)c1 | 3.2 |  | 1.4 | 4.5 | 3 | 
8 | O=C(CCCC(=O)Nc1ccc(NC(=O)Nc2ccc(Cl)c(C(F)(F)F)c2)cc1)NO | > 10 |  | > 10 | > 10 | > 10 | 
9 | O=C(Nc1ccc(NCc2ccc(C(=O)NO)cc2)cc1)Nc1ccc(Cl)c(C(F)(F)F)c1 | 3.8 |  | 2.8 | 7.2 | 4.3 | 
10 | O=C(Nc1ccc(C(=O)NO)cc1)Nc1ccc(Cl)c(C(F)(F)F)c1 | 3.1 |  | 1.3 | 3.8 | 7.2 | 
11 | CNC(=O)c1cc(Oc2ccc(NC(=O)Nc3ccc(Cl)c(C(F)(F)F)c3)cc2)ccn1 [SORAFENIB] | 6.3 |  | 5 | 7.3 | 5 | 
12 | O=C(Nc1ccc2c(c1)N(Cc1ccc(C(=O)NO)cc1)CC2)Nc1ccc(Cl)c(C(F)(F)F)c1 | 3.1 | 0.251 | 1.4 | 4.5 | 2.8 | inhibition [7]: Dose-dependent effect; inhibition [8]: Dose-dependent effect; inhibition [9]: Dose-dependent effect; inhibition [10]: Dose-dependent effect; Ratio IC50 [11]: 6.8; IC50 [12]: 1.71 µM; inhibition [13]: Dose-dependent effect; inhibition [14]: Dose-dependent effect
13 | O=C(CCCCCCC(=O)Nc1ccc(NC(=O)Nc2ccc(Cl)c(C(F)(F)F)c2)cc1)NO | 4.6 |  | 4.5 | 8.1 | 9.5 | 
14 | O=C(Nc1ccc2c(c1)CCN2c1ccc(C(=O)NO)cc1)Nc1ccc(Cl)c(C(F)(F)F)c1 | 3.8 | 0.825 | 2 | 4.1 | 3.4 | 
15 | O=C(/C=C/c1ccc(NC(=O)Nc2ccc(Cl)c(C(F)(F)F)c2)cc1)NO | 1.9 | 0.166 | 1 | 3.2 | 3.4 | Ratio IC50 [15]: 43.6; inhibition [7]: Dose-dependent effect; inhibition [8]: Dose-dependent effect; inhibition [9]: Dose-dependent effect; IC50 [16]: > 10 µM; IC50 [17]: 7.23 µM; Ratio IC50 [18]: > 60.2; IC50 [2]: 13.2 µM; inhibition [10]: Dose-dependent effect; Ratio IC50 [11]: 12; IC50 [12]: 1.99 µM; inhibition [19]: Dose-dependent effect; inhibition [13]: Dose-dependent effect; Activity [20]: Dose-dependent effect; inhibition [14]: Dose-dependent effect
